“And” between values parts separate entries of the source, which are not always exact repeats. Identical values can stand only once. Like-named read-outs stand apart in the source and are kept apart here. Marks after values point to notes of the source that are not given here.
What was measured:
[1] = system: rat anti-collagen IgG1 antibodies; assay: Rat anti-collagen IgG1 antibodies in serum of CIA rats at day 21; format: in vivo, Lewis rat; conditions: for Average rat anti-collagen IgG1 levels, Mean: day 21, group mean; for Final Rat Anti-Collagen IgG1 Antibody Con. / Rat Anti-Collagen IgG1 Antibody Con.: day 21, per animal; for Rat Anti-Collagen IgG1 Antibody Con.: before multiplying by Fold 1000; for levels of rat anti-collagen IgG1 antibodies relative to CIA induced, no treatment: day 21
Method: Blood was additionally collected from groups 1-7 via cardiac puncture following euthanasia on Day 21. […] Serum was divided into two separate tubes and stored at −75±15° C. One tube was used to analyze IgG1, and the other tube was reserved for additional analyses.

IL-17A = IL-17A levels by ELISA in stimulated human peripheral blood mononuclear cells; format: cell-based; conditions: for IC50: Homo sapiens, PBMC
Method: CD2, CD3, and CD28 antibody-coated beads from the T-cell activation/expansion kit (Miltenyi Biotec) were added to the PBMC at a bead-to-cell ratio of 1:2.
The mixture of PBMCs and beads were seeded into the wells of the round-bottom 96-well plate at a concentration of 2×10^5 cells/well in a total volume of 200 μL. The cells were cultured for 72 hours at 37° C. and 5% CO2 and then supernatants were collected and IL-17A and IL-22 levels were measured by ELISA. […] The final compound concentration ranged from 30,000 nM to 0.005 nM and the final DMSO concentration per well was 0.3%. PBMCs were seeded at approximately 2×10^5 cells/well in the wells of the 96-well tissue culture plate in a total volume of 190 μL. The plate was incubated for 1 hour at 37° C. and 5% CO2. […] The cells were then cultured for 24 hours at 37° C. and 5% CO2. The supernatant was collected and CXCL10 levels were measured by ELISA.

[2] = Pharmacokinetics and plasma concentration of Example 101 in Lewis rats after oral administration (CIA study); format: in vivo, Lewis rat
[3] = Lewis rats, oral, 10 mg/kg, day 20, mean
[4] = Lewis, rat, plasma, oral, 10 mg/kg, oral, day 0, 10 mg/kg, per test subject, read-out: Plasma concentration
[5] = Lewis, rat, plasma, oral, 10 mg/kg, oral, day 20, 10 mg/kg, per test subject, read-out: Plasma concentration
[6] = Lewis, rat, plasma, oral, 10 mg/kg, plasma, oral, day 0, 10 mg/kg, read-out: Mean Concentration
[7] = Lewis, rat, plasma, oral, 10 mg/kg, plasma, oral, day 20, 10 mg/kg, read-out: Mean Concentration

Compound: CNC(=O)c1[nH]c(C(=O)NC2CCC2)cc1O[C@@H](C)c1ccccc1 (stereo in doubt) [Example 101, N^5-cyclobutyl-N^2-methyl-3-(1-phenylethoxy)-1H-pyrrole-2,5-dicarboxamide]
- Average rat anti-collagen IgG1 levels, Mean ([1]; Group 5 (CIA), 3 mg/kg): 7247.32*
- Final Rat Anti-Collagen IgG1 Antibody Con. ([1]; Group 5 (CIA), 3 mg/kg): 7202.91 units/ml and 5737.56 units/ml and 596.39 units/ml and 17040.09 units/ml and 6834.32 units/ml and 2359.32 units/ml and 1570.97 units/ml and 16636.97 units/ml
- Average rat anti-collagen IgG1 levels, Mean ([1]; Group 6 (CIA), 10 mg/kg): 10839.90
- Final Rat Anti-Collagen IgG1 Antibody Con. ([1]; Group 6 (CIA), 10 mg/kg): 44339.86 units/ml and 9577.48 units/ml and 15070.08 units/ml and 545.06 units/ml and 12072.29 units/ml and 3772.28 units/ml and 782.47 units/ml and 559.69 units/ml
- Average rat anti-collagen IgG1 levels, Mean ([1]; Group 7 (CIA), 30 mg/kg): 1447.13**
- Final Rat Anti-Collagen IgG1 Antibody Con. ([1]; Group 7 (CIA), 30 mg/kg): 219.33 units/ml and 81.22 units/ml and 1208.05 units/ml and 4311.36 units/ml and 1799.62 units/ml and 548.72 units/ml and 1961.63 units/ml
- Rat Anti-Collagen IgG1 Antibody Con. ([1]; Group 5 (CIA), 3 mg/kg): 7.20 units/ml and 5.74 units/ml and 0.60 units/ml and 17.04 units/ml and 6.83 units/ml and 2.36 units/ml and 1.57 units/ml and 16.64 units/ml
- Rat Anti-Collagen IgG1 Antibody Con. ([1]; Group 6 (CIA), 10 mg/kg): 44.34 units/ml and 9.58 units/ml and 15.07 units/ml and 0.55 units/ml and 12.07 units/ml and 3.77 units/ml and 0.78 units/ml and 0.56 units/ml
- Rat Anti-Collagen IgG1 Antibody Con. ([1]; Group 7 (CIA), 30 mg/kg): 0.22 units/ml and 0.08 units/ml and 1.21 units/ml and 4.31 units/ml and 1.80 units/ml and 0.55 units/ml and 1.96 units/ml
- levels of rat anti-collagen IgG1 antibodies relative to CIA induced, no treatment ([1]; 1 mg/kg, 10 mg/kg as printed, p<0.05): significantly decreased levels
- levels of rat anti-collagen IgG1 antibodies relative to CIA induced, no treatment ([1]; 30 mg/kg, p<0.01): significantly decreased levels
- IC50 (IL-17A; Test Subject 1, read-out: IL-17A IC50): 20.5 nM
- IC50 (IL-17A; Test Subject 2, read-out: IL-17A IC50): 5.7 nM
- IC50 (IL-17A; Test Subject 3, read-out: IL-17A IC50): 58.5 nM
- IC50 (IL-17A; mean of test subjects, read-out: IL-17A IC50 Mean): 28.2 nM
- effectiveness in reducing inflammatory biomarkers IL-17A, IL-22, and CXCL-10 relative to GSK620 (IL-17A; human PBMC): more effective than GSK620
- IC50 for IL-17A relative to GSK620 (IL-17A; human PBMC, 72 hours): substantially lower IC50
- Biomarker selectivity (IL-17 vs. CXCL10) (IL-17A; human PBMC, from mean IC50): >1063 Fold
- Plasma concentration ([2]; Day 21, Group 5 (CIA), 3 mg/kg, per animal): 37.5 ng/mL and 59.4 ng/mL and 64.9 ng/mL and 49.5 ng/mL and 65.2 ng/mL and 71.9 ng/mL and 69.6 ng/mL
- Plasma concentration ([2]; Day 21, Group 6 (CIA), 10 mg/kg, per animal): 270 ng/mL and 134 ng/mL and 209 ng/mL and 281 ng/mL and 251 ng/mL and 313 ng/mL and 175 ng/mL and 28.4 ng/mL
- Plasma concentration ([2]; Day 21, Group 7 (CIA), 30 mg/kg, per animal): 1620 ng/mL and 1260 ng/mL and 1430 ng/mL and 1220 ng/mL and 1350 ng/mL and 2000 ng/mL and 1440 ng/mL
- day 20 plasma concentration versus dose ([2]; Lewis rats, oral administration): appeared to increase in a dose-dependent manner
- AUClast/D [2, 3]: 528 (ng·h/mL)/(mg/kg)
- AUC—% Extrap—obs [2, 3]: 1.11%
- time at which plasma levels peaked after the second daily dose ([2]; Lewis rats, oral, second daily dose administered at 8 h): 10 h
- concentration at 21 day ([2]; Lewis, rat, plasma, oral, 3 mg/kg, Day 21, Group 5 (CIA), 3 mg/kg, per animal, read-out: Plasma Concentration): 54.9 ng/mL
- concentration at 21 day ([2]; Lewis, rat, plasma, oral, 3 mg/kg, Day 21, Group 5 (CIA), 3 mg/kg, read-out: Mean Plasma Concentration): 59.1 ng/mL
- concentration at 21 day ([2]; Lewis, rat, plasma, oral, 10 mg/kg, Day 21, Group 6 (CIA), 10 mg/kg, read-out: Mean Plasma Concentration): 208 ng/mL
- concentration at 0.5 h [2, 4]: 738 ng/mL
- concentration at 1 h [2, 4]: 1090 ng/mL
- concentration at 2 h [2, 4]: 1110 ng/mL
- concentration at 4 h [2, 4]: 1170 ng/mL
- concentration at 8 h [2, 4]: 190 ng/mL
- concentration at 10 h [2, 4]: 1880 ng/mL
- concentration at 12 h [2, 4]: 772 ng/mL
- concentration at 14 h [2, 4]: 324 ng/mL
- concentration at 0.25 h [2, 5]: 1260 ng/mL
- concentration at 0.5 h [2, 5]: 1660 ng/mL
- concentration at 1 h [2, 5]: 1600 ng/mL
- concentration at 2 h [2, 5]: 841 ng/mL
- concentration at 4 h [2, 5]: 452 ng/mL
- concentration at 10 h [2, 5]: 1170 ng/mL
- concentration at 12 h [2, 5]: 258 ng/mL
- concentration at 0.25 h [2, 6]: 502 ng/mL
- concentration at 0.5 h [2, 6]: 706 ng/mL
- concentration at 1 h [2, 6]: 1270 ng/mL
- concentration at 2 h [2, 6]: 1240 ng/mL
- concentration at 4 h [2, 6]: 997 ng/mL
- concentration at 8 h [2, 6]: 148 ng/mL
- concentration at 10 h [2, 6]: 1930 ng/mL
- concentration at 12 h [2, 6]: 799 ng/mL
- concentration at 14 h [2, 6]: 439 ng/mL
- concentration at 24 h ([2]; Lewis, rat, plasma, oral, 10 mg/kg, plasma, oral, day 0, 10 mg/kg): 57 ng/mL
- concentration at 0.25 h [2, 7]: 1410 ng/mL
- concentration at 0.5 h [2, 7]: 1650 ng/mL
- concentration at 1 h [2, 7]: 1640 ng/mL
- concentration at 2 h [2, 7]: 1140 ng/mL
- concentration at 4 h [2, 7]: 494 ng/mL
- concentration at 8 h [2, 7]: 169 ng/mL
- concentration at 10 h [2, 7]: 1450 ng/mL
- concentration at 12 h [2, 7]: 406 ng/mL
- concentration at 14 h [2, 7]: 138 ng/mL
- concentration at 24 h ([2]; Lewis, rat, plasma, oral, 10 mg/kg, plasma, oral, day 20, 10 mg/kg): 25 ng/mL
- concentration at 21 day ([2]; Lewis, rat, plasma, oral, 30 mg/kg, Day 21, Group 7 (CIA), 30 mg/kg, per animal, read-out: Plasma Concentration): 2290 ng/mL
- concentration at 21 day ([2]; Lewis, rat, plasma, oral, 30 mg/kg, Day 21, Group 7 (CIA), 30 mg/kg, read-out: Mean Plasma Concentration): 1580 ng/mL
- AUC(0-inf) ([2]; Lewis, rat, plasma, po, 10 mg/kg, Lewis rats, oral, 10 mg/kg, day 20, mean): 10700 ng·h/mL

— patent US20250263370A1 (Tay Therapeutics Limited, priority 2022, published 2025)
